# In patent US10676474B2, “1,6-naphthyridine derivatives as CDK4/6 inhibitor” (CSTONE PHARMACEUTICALS, priority 2016, dated 2020):
# pIC50: −log10 of the molar value.
# Legend:
# NCI-H358 cells = assay: Cell viability assay NCI-H358 (CellTiter-Glo); assay type: cell-based; conditions: Homo sapiens, 168 h; NCI-H358, incubated for 7 days
# Experimental: The NCI-H358 cell line is from the cell bank of the Department of Biology of WuXi Apptec Co. Ltd. Envision Multi-Label Analyzer (PerkinElmer).
# 1) 100 μL of phosphate buffer solution was added to the peripheral wells of the 384-well plate and 40 μL of NCI-H358 cell suspension was added to the other wells containing 250 NCI-H358 cells. The cell plate was then placed in a carbon dioxide incubator and incubated overnight.
# 2) A 3-fold gradient dilution was subjected to the tested compounds using Echo. Each compound was diluted by 10 concentration gradients (diluted from 25 μM to 1.27 nM), 100 nL of which was added to the corresponding wells of the cell plate. The cell plate was then placed in a carbon dioxide incubator and incubated for 7 days.
# 3) 20 μL of Promega CellTiter-Glo reagent was added to each well of the cell plate, and shaken for 10 minutes away from light at room temperature to stabilize the luminescence signal. Readings were performed using a PerkinElmer Envision Multi-label Analyzer.
# Table 1 provides the inhibitory activity of the compounds of the present invention against the proliferation of H358 cells.
# [1] = Thermodynamic solubility test (shake-flask, HPLC); assay type: physicochemical; conditions: phosphate buffer, aqueous buffer, thermodynamic from solid; pH = 7.4, Table 3-2; read-out: Thermodynamic solubility
# Experimental: The thermodynamic solubility of the compounds was determined by the shake-flask method and HPLC. The solubility of the compounds is an important property that affects drug screening of compounds and the absorption of compounds in animals and humans. A saturated solution of the compound was first given and quantitatively tested by HPLC to obtain the solubility of the compound.
# 50 mM phosphate buffer solution, pH 7.4.
# Not less than 2 mg of the sample powder was weighed into a vial of Whatman miniuniprep. If test of the thermodynamic solubility of a sample in multiple buffer solutions is required, an individual vial is required for each test.
# 450 μL of the buffer solution (pH 7.4) was added to each Whatman miniuniprep vial.
# After the addition of the buffer solution, the Whatman miniuniprep cap with a filter was mounted and pressed above the liquid level so that the filter could contact with the buffer solution during shaking.
# And the observation of the solution was recorded.
# It was shaked at 550 RPM for 24 hours at room temperature (about 22 to 25° C.).
# The Whatman Miniunipreps filter cap was pressed to the bottom to give the filtrate of the sample solubility solution. All sample vials should be filtered before and after insoluble substances and their leakage.
# The buffer was diluted 50 folds to give a sample diluent.
# Three UV standards from low to high concentration were injected into HPLC, followed by the injection of the dilutions and supernatants of the tested compounds. The tested sample was injected twice.
# [2] = Metabolic stability in human liver microsomes; assay type: in vitro ADME; conditions: 0.5 mg/mL protein, read-out: Human T1/2
# Experimental: (§1) This assay is used to test the metabolic stability of tested substances in rats, mice and human liver microsomes.
# (§2) 1) The tested compound with concentration of 1 μM was co-incubated with liver microsomes with a protein concentration of 0.5 mg/mL under a reducing coenzyme II regeneration system in a 37° C. water bath.
# (§3) 2) The positive controls include: testosterone (3A4 substrate), propafenene (2D6 substrate) and diclofenac (2C9 substrate). The incubation condition of the positive controls was consistent with that of the compound.
# (§4) 3) The reaction time points were: 0, 5, 10, 20, 30 and 60 minutes, and the reaction is terminated at the corresponding time point using a termination solution containing an internal standard. The compounds were also incubated with microsomes for 60 minutes without a reducing coenzyme II regeneration system and served as a negative control.
# (§5) 4) Each time point was a single point (n=1).
# (§6) 5) The sample was determined by LC/MS/MS, and the compound concentration was shown as the ratio of the peak area of the compound to the peak area of the internal standard (non-standard).
# (§7) 6) In the project report summary, the half-life and the clearance rate would be calculated.
# [3] = Metabolic stability in rat liver microsomes; assay type: in vitro ADME; conditions: 0.5 mg/mL protein, read-out: Rats T1/2
# Experimental: as §1, §2, §3, §4, §5, §6, §7
# [4] = Metabolic stability in mouse liver microsomes; assay type: in vitro ADME; conditions: 0.5 mg/mL protein, read-out: Mice T1/2
# Experimental: as §1, §2, §3, §4, §5, §6, §7
# [5] = test system: LU-01-0393 lung cancer patient-derived tumor tissue xenograft (PDX); assay: In vivo pharmacodynamic study (1), LU-01-0393 PDX; parameters: species or system BALB/c nude mice; conditions: 120 mg/kg orally daily
# Experimental: The in vivo pharmacodynamic experiments were performed on the BALB/c nude mice implanted subcutaneously with the LU-01-0393 lung cancer patient-derived tumor tissue xenograft (PDX).
# BALB/c nude mice, female, 6-8 weeks, weighing approximately 17-21 g, were placed in a single ventilated cage (5 mice per cage) under a special pathogen free environment. All of the cages, beddings and water were disinfected before use. All of the animals were permitted free access to a standard certified commercial laboratory diet. A total of 36 mice purchased from Vital River Laboratory Animal Co., LTD, Beijing were used for the study. Each mouse was implanted subcutaneously with a tumor LU-01-0393 FP4 section (20-30 mm^3) in the right back for tumor growth. The dosing initiated when the average tumor volume reached about 150-200 mm^3. The tumor volume was measured twice a week using a two-dimensional caliper, and the volume was measured in mm^3, calculated by the following the formula: V=0.5 a×b^2, wherein, a and b were the long and short diameters of the tumor, respectively. The antitumor efficacy was determined by dividing the average increase in the tumor volume of the animals treated with the compound by the average increase in the tumor volume of the untreated animals.
# [6] = test system: non-small cell lung cancer NCI-H358 model; assay: In vivo pharmacodynamic study (2), NCI-H358 model, tumor volume; parameters: species or system BALB/c nude mice; conditions: 60 mg/kg orally daily, Table 6-1
# Experimental: (§8) The in vivo pharmacodynamic experiments were performed on the BALB/c nude mice implanted subcutaneously with the non-small cell lung cancer NCI-H358 model.
# (§9) All of the cages, beddings and water were disinfected before use. All of the animals were permitted free access to a standard certified commercial laboratory diet. A total of 86 mice purchased from Vital River Laboratory Animal Co., LTD, Beijing were used for the study. The animal information of the experiments in Example 34 was as follows: BALB/c nude mice, female, 6-8 weeks, weighing approximately 16-18 g, were placed in a single ventilated cage (4 mice per cage) under a special pathogen free environment. All of the cages, beddings and water were disinfected before use. All of the animals were permitted free access to a standard certified commercial laboratory diet. A total of 56 mice purchased from Shanghai Lingchang Biotechnology Co., Ltd. were used for the study.
# (§10) Each mouse was implanted subcutaneously with NCI-H358 tumor cells in the right back for tumor growth. The dosing initiated when the average tumor volume reached about 100-200 mm^3. […] The tumor volume was measured twice a week using a two-dimensional caliper, and the volume was measured in mm^3, calculated by the following the formula: V=0.5 a×b^2, wherein, a and b were the long and short diameters of the tumor, respectively. The antitumor efficacy was determined by dividing the average increase in the tumor volume of the animals treated with the compound by the average increase in the tumor volume of the untreated animals, and the safety of the compound was determined by the change in the body weight of the animal treated with the compound.
# TGI: Tumor Growth Inhibition.
# [7] = In vivo pharmacodynamic study (2), NCI-H358 model, animal weight; parameters: species or system BALB/c nude mice; conditions: 60 mg/kg orally daily
# Experimental: as §8, §9, §10
# [8] = it has been reported; cited from earlier work
# physchem = conditions: pH 7.4, aqueous buffer, kinetic from dmso stock
compound,measurement,setting,value
CC(=O)c1c(C)c2cnc(Nc3ccc(N4CCNCC4)cn3)nc2n(C2CCCC2)c1=O [Palbociclib],pIC50,NCI-H358 cells,6.50
same,solubility thermodynamic at 24 h,[1],65.3 µM
same,half-life at 1 μM,[2],44.7 min
same,half-life at 1 μM,[3],47.8 min
same,half-life at 1 μM,[4],53.3 min
same,Gross tumor volume Day 0,[5]; Day 0,145 mm^3
same,Gross tumor volume Day 7,[5]; Day 7,173 mm^3
same,Gross tumor volume Day 14,[5]; Day 14,179 mm^3
same,Gross tumor volume Day 20,[5]; Day 20,188 mm^3
same,"Gross tumor volume, 0 day",[6]; 0 day,152 mm^3
same,"Gross tumor volume, 7 days",[6]; 7 days,137 mm^3
same,"Gross tumor volume, 14 days",[6]; 14 days,107 mm^3
same,"Gross tumor volume, 17 days",[6]; 17 days,104 mm^3
same,"Changes in animal weight, 0 days",[7]; 0 days,0.0%
same,"Changes in animal weight, 7 days",[7]; 7 days,1.0%
same,"Changes in animal weight, 14 days",[7]; 14 days,0.9%
same,"Changes in animal weight, 17 days",[7]; 17 days,0.7%
same,Category Efflux transporter substrate,Caco-2 cells,Highly
same,Category Permeability,Caco-2 cells,Low
same,brain permeability,[8],poor
same,solubility kinetic at 24 h,physchem,103 µM
